According to US10669272B2, “Substituted naphthyridinone compounds useful as T cell activators” (BRISTOL-MYERS SQUIBB COMPANY, priority 2018, dated 2020):
pEC50, pIC50: −log10 of the molar value.

How the values were obtained:
human DGKα = target: T1, human DGKα (Homo sapiens, UniProt P23743); test: DGKα LIPGLO assay (extruded liposome substrate), in vitro DGK inhibition; type: biochemical; settings: liposome (LIPGLO) assay; read-out: DGKa LIPGLO IC50
T1 construct: TVMV protease cleavage site (C); Hexa-His (C); made in house; host or cells: Sf9 insect cells (baculovirus, Bac-to-Bac)

human DGKζ = target: T2, human DGKζ (Homo sapiens, UniProt Q13574); test: DGKζ LIPGLO assay (extruded liposome substrate), in vitro DGK inhibition; type: biochemical; settings: liposome (LIPGLO) assay; read-out: DGKz LIPGLO IC50
T2 construct: TVMV protease cleavage site (C); Hexa-His (C); made in house; host or cells: Sf9 insect cells (baculovirus, Bac-to-Bac)

naïve human CD8 T cells = test: Human CD8 T cells IFN-γ assay; type: cell-based; settings: Homo sapiens, T-cell, 20 h, normalized to 3 μM reference compound with anti-CD3 plus anti-CD28 as 100% activation; read-out: HuCD8 INFG Normalized EC50;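 also: Naïve human CD8 T cells stimulated with plate-bound anti-CD3 and soluble anti-CD28, IFN-γ in supernatant quantified by AlphaLISA and converted to pg/mL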
Human venous whole blood = test: Human whole blood IFN-γ assay; type: cell-based; settings: Homo sapiens, 24 h, human whole blood; normalized to 3 μM reference compound with anti-CD3 plus anti-CD28 as 100% activation; read-out: INFg Whole Blood Normalized Agonist EC50;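 also: blood from healthy donors exposed to compound for 1 h before stimulation with anti-CD3 and anti-CD28 at 1 µg/mL each, IFN-γ quantified in supernatant by AlphaLISA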

T1 sequence (P23743 with tags, fused parts or gaps): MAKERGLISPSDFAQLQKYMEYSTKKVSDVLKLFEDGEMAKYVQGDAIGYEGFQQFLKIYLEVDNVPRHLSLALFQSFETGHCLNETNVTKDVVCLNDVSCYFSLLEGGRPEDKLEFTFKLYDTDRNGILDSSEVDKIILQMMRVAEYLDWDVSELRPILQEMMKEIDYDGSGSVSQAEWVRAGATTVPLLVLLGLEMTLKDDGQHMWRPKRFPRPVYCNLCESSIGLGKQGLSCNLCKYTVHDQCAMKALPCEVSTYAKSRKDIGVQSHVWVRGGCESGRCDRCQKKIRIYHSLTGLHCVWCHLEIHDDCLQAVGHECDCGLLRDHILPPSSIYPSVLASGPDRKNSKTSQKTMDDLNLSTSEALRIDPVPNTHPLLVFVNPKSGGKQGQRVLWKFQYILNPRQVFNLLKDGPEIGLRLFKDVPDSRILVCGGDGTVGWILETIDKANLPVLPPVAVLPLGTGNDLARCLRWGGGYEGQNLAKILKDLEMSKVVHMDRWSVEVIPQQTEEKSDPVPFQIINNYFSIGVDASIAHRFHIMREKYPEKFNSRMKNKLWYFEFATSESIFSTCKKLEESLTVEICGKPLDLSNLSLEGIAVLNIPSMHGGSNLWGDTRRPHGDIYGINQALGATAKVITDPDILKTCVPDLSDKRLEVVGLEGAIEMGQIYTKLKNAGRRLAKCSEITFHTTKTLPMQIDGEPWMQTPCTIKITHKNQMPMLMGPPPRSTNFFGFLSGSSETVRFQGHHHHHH
T2 sequence (Q13574 with tags, fused parts or gaps isoform Q13574-4): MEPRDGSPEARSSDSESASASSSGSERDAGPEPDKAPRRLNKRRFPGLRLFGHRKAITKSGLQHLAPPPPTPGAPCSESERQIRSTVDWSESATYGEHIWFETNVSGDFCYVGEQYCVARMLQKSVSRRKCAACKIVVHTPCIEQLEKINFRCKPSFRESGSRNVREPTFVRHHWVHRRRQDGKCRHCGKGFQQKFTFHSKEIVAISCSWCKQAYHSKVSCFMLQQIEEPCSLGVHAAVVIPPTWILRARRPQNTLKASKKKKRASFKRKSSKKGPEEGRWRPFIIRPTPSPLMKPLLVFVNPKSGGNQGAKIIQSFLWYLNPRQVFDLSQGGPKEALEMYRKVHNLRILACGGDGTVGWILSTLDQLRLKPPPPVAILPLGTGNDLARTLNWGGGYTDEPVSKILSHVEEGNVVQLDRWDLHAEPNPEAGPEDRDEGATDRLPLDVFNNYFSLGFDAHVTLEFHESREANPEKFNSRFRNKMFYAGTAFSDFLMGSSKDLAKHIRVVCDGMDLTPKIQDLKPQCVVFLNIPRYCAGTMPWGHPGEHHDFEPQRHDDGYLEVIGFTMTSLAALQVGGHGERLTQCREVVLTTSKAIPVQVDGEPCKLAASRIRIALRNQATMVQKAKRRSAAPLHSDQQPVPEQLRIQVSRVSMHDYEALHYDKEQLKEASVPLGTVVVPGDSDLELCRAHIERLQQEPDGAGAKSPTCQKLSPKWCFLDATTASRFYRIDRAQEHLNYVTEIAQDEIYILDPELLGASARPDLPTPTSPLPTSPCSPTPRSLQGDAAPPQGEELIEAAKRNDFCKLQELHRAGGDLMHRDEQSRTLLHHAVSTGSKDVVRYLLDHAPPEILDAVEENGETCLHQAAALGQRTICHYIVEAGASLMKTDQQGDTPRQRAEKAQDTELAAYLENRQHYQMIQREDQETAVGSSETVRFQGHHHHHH

Row | pIC50 (human DGKα) | pIC50 (human DGKζ) | SMILES | pEC50 (naïve human CD8 T cells) | pEC50 (Human venous whole blood)
1 | 6.89 | 5.72 | C[C@@H]1CN(c2cc(=O)n(C)c3ccc(C#N)nc23)[C@@H](C)CN1Cc1c(F)cccc1F [Example 271, 8-[(2S,5R)-4-[(2,6-difluorophenyl)methyl]-2,5-dimethylpiperazin-1-yl]-5-methyl-6-oxo-5,6-dihydro-1,5-naphthyridine-2-carbonitrile] | 6.26 | 5.85
2 | 5.92 | 6.00 | C[C@@H]1CN(c2cc(=O)n(C)c3ccc(C#N)nc23)[C@@H](C)CN1C(c1ccccc1)c1cccc(F)c1F (stereo partly drawn) [Example 276, 8-[(2S,5R)-4-[(2,3-difluorophenyl)(phenyl)methyl]-2,5-dimethylpiperazin-1-yl]-5-methyl-6-oxo-5,6-dihydro-1,5-naphthyridine-2-carbonitrile] | 6.74 | 5.62
3 | 6.60 | 5.82 | C[C@@H]1CN(c2cc(=O)n(C)c3ccc(C#N)nc23)[C@@H](C)CN1Cc1ccc(F)cc1F [Example 277, 8-[(2S,5R)-4-[(2,4-difluorophenyl)methyl]-2,5-dimethylpiperazin-1-yl]-5-methyl-6-oxo-5,6-dihydro-1,5-naphthyridine-2-carbonitrile] | 7.18 | 6.08
4 | 6.06 | 5.82 | C[C@@H]1CN(c2cc(=O)n(C)c3ccc(C#N)nc23)[C@@H](C)CN1Cc1cccc(C(F)(F)F)n1 [Example 278, 8-[(2S,5R)-2,5-dimethyl-4-{[6-(trifluoromethyl)pyridin-2-yl]methyl}piperazin-1-yl]-5-methyl-6-oxo-5,6-dihydro-1,5-naphthyridine-2-carbonitrile] | 5.66 | 5.49
5 | 5.64 | 5.34 | Cc1nc(C(F)(F)F)ccc1CN1C[C@H](C)N(c2cc(=O)n(C)c3ccc(C#N)nc23)C[C@H]1C [Example 279, 8-[(2S,5R)-2,5-dimethyl-4-{[2-methyl-6-(trifluoromethyl)pyridin-3-yl]methyl}piperazin-1-yl]-5-methyl-6-oxo-5,6-dihydro-1,5-naphthyridine-2-carbonitrile] | 5.92 | 5.43
6 | 5.10 | 5.14 | COc1cc(CN2C[C@H](C)N(c3cc(=O)n(C)c4ccc(C#N)nc34)C[C@H]2C)cc(C(F)(F)F)n1 [Example 280, 8-[(2S,5R)-4-{[2-methoxy-6-(trifluoromethyl)pyridin-4-yl]methyl}-2,5-dimethylpiperazin-1-yl]-5-methyl-6-oxo-5,6-dihydro-1,5-naphthyridine-2-carbonitrile] | 6.17 | 5.11
7 | 5.55 | 5.36 | C[C@@H]1CN(c2cc(=O)n(C)c3ccc(C#N)nc23)[C@@H](C)CN1Cc1ccc(C(F)(F)F)nc1Cl [Example 281, 8-[(2S,5R)-4-{[2-chloro-6-(trifluoromethyl)pyridin-3-yl]methyl}-2,5-dimethylpiperazin-1-yl]-5-methyl-6-oxo-5,6-dihydro-1,5-naphthyridine-2-carbonitrile] | 6.25 | 5.57
8 | 5.92 | 6.03 | C[C@@H]1CN(c2cc(=O)n(C)c3ccc(C#N)nc23)[C@@H](C)CN1C(c1ccccc1)c1cccc(Cl)c1 (stereo partly drawn) [Example 282, 8-[(2S,5R)-4-[(3-chlorophenyl)(phenyl)methyl]-2,5-dimethylpiperazin-1-yl]-5-methyl-6-oxo-5,6-dihydro-1,5-naphthyridine-2-carbonitrile] | 7.16 | 5.42
9 | 6.19 | 5.96 | C[C@@H]1CN(c2cc(=O)n(C)c3ccc(C#N)nc23)[C@@H](C)CN1C(c1ccccc1)c1ccc(F)cc1F (stereo partly drawn) [Example 283, 8-[(2S,5R)-4-[(2,4-difluorophenyl)(phenyl)methyl]-2,5-dimethylpiperazin-1-yl]-5-methyl-6-oxo-5,6-dihydro-1,5-naphthyridine-2-carbonitrile] | 7.17 | 6.05
10 | 6.57 | 6.17 | C[C@@H]1CN(c2cc(=O)n(C)c3ccc(C#N)nc23)[C@@H](C)CN1C(c1ccccc1)c1ccccc1F (stereo partly drawn) [Example 285, 8-[(2S,5R)-4-[(2-fluorophenyl)(phenyl)methyl]-2,5-dimethylpiperazin-1-yl]-5-methyl-6-oxo-5,6-dihydro-1,5-naphthyridine-2-carbonitrile] | 6.82 | 5.82
11 | 5.72 | 5.49 | C[C@@H]1CN(c2cc(=O)n(C)c3ccc(C#N)nc23)[C@@H](C)CN1Cc1cccc(F)c1F [Example 286, 8-[(2S,5R)-4-[(2,3-difluorophenyl)methyl]-2,5-dimethylpiperazin-1-yl]-5-methyl-6-oxo-5,6-dihydro-1,5-naphthyridine-2-carbonitrile] | 6.43 | 5.66
12 | 7.47 | 5.80 | C[C@@H]1CN(c2cc(=O)n(C)c3ccc(C#N)nc23)[C@@H](C)CN1Cc1ccccc1F [Example 287, 8-[(2S,5R)-4-[(2-fluorophenyl)methyl]-2,5-dimethylpiperazin-1-yl]-5-methyl-6-oxo-5,6-dihydro-1,5-naphthyridine-2-carbonitrile] | 4.92 | 5.15
13 | 5.70 | 5.66 | C[C@@H]1CN(c2cc(=O)n(C)c3ccc(C#N)nc23)[C@@H](C)CN1C(c1ccccc1)c1cc(F)cc(F)c1 (stereo partly drawn) [Example 288, 8-[(2S,5R)-4-[(3,5-difluorophenyl)(phenyl)methyl]-2,5-dimethylpiperazin-1-yl]-5-methyl-6-oxo-5,6-dihydro-1,5-naphthyridine-2-carbonitrile] | 7.59 | 6.09
14 | 5.52 | 6.12 | C[C@@H]1CN(c2cc(=O)n(C)c3ccc(C#N)nc23)[C@@H](C)CN1C(c1ccc(F)cc1)c1cc(F)cc(F)c1 (stereo partly drawn) [Example 289, 8-[(2S,5R)-4-[(3,5-difluorophenyl)(4-fluorophenyl)methyl]-2,5-dimethylpiperazin-1-yl]-5-methyl-6-oxo-5,6-dihydro-1,5-naphthyridine-2-carbonitrile] | 6.66 | 6.00
15 | 5.77 | 5.46 | C[C@@H]1CN(c2cc(=O)n(C)c3ccc(C#N)nc23)[C@@H](C)CN1Cc1cc(F)cc(F)c1 [Example 290, 8-[(2S,5R)-4-[(3,5-difluorophenyl)methyl]-2,5-dimethylpiperazin-1-yl]-5-methyl-6-oxo-5,6-dihydro-1,5-naphthyridine-2-carbonitrile] | 5.70 | 5.10
16 | 6.55 | 5.52 | C[C@@H]1CN(c2cc(=O)n(C)c3ccc(C#N)nc23)[C@@H](C)CN1Cc1cccc(F)c1 [Example 292, 8-[(2S,5R)-4-[(3-fluorophenyl)methyl]-2,5-dimethylpiperazin-1-yl]-5-methyl-6-oxo-5,6-dihydro-1,5-naphthyridine-2-carbonitrile] | 5.77 | 5.66
17 | 6.72 | 6.48 | C[C@@H]1CN(c2cc(=O)n(C)c3ccc(C#N)nc23)[C@@H](C)CN1C(c1ccc(F)cc1)c1ccc(C(F)(F)F)cc1 (stereo partly drawn) [Example 294, 8-[(2S,5R)-4-[(4-fluorophenyl)[4-(trifluoromethyl)phenyl]methyl]-2,5-dimethylpiperazin-1-yl]-5-methyl-6-oxo-5,6-dihydro-1,5-naphthyridine-2-carbonitrile] | 7.70 | 6.25
18 | 5.74 | 5.89 | Cc1ccc(C(c2ccc(F)cc2)N2C[C@H](C)N(c3cc(=O)n(C)c4ccc(C#N)nc34)C[C@H]2C)cc1 (stereo partly drawn) [Example 295, 8-[(2S,5R)-4-[(4-fluorophenyl)(4-methylphenyl)methyl]-2,5-dimethylpiperazin-1-yl]-5-methyl-6-oxo-5,6-dihydro-1,5-naphthyridine-2-carbonitrile] | 6.70 | 6.19
19 | 6.20 | 6.05 | C[C@@H]1CN(c2cc(=O)n(C)c3ccc(C#N)nc23)[C@@H](C)CN1C(c1ccccc1)c1cccc(F)c1 (stereo partly drawn) [Example 296, 8-[(2S,5R)-4-[(3-fluorophenyl)(phenyl)methyl]-2,5-dimethylpiperazin-1-yl]-5-methyl-6-oxo-5,6-dihydro-1,5-naphthyridine-2-carbonitrile] | 6.40 | 5.92
20 | 7.82 | 6.13 | C[C@@H]1CN(c2cc(=O)n(C)c3ccc(C#N)nc23)[C@@H](C)CN1Cc1ccc(F)cc1 [Example 297, 8-[(2S,5R)-4-[(4-fluorophenyl)methyl]-2,5-dimethylpiperazin-1-yl]-5-methyl-6-oxo-5,6-dihydro-1,5-naphthyridine-2-carbonitrile] | 6.31 | 5.82
21 | 5.82 | 5.62 | C[C@@H]1CN(c2cc(=O)n(C)c3ccc(C#N)nc23)[C@@H](C)CN1C(c1ccc(Cl)cc1)c1ccc(C#N)cc1 (stereo partly drawn) [Example 298, 8-((2S,5R)-4-((4-chlorophenyl)(4-cyanophenyl)methyl)-2,5-dimethylpiperazin-1-yl)-5-methyl-6-oxo-5,6-dihydro-1,5-naphthyridine-2-carbonitrile] | 7.54 | 6.24
22 | 5.77 | 5.96 | Cc1ccc(C(c2ccc(Cl)cc2)N2C[C@H](C)N(c3cc(=O)n(C)c4ccc(C#N)nc34)C[C@H]2C)cc1 (stereo partly drawn) [Example 299, 8-[(2S,5R)-4-[(4-chlorophenyl)(4-methylphenyl)methyl]-2,5-dimethylpiperazin-1-yl]-5-methyl-6-oxo-5,6-dihydro-1,5-naphthyridine-2-carbonitrile] | 7.77 | 6.19
